Data on 1 compound can be found in patent publication US7608750B2, “Nonhuman model animal unresponsive to immunopotentiating synthetic compound” (Japan Science and Technology Agency, priority 2001, dated 2009).

The test system of one experiment is MyD88 knockout mice. The experiment in a line: Serum cytokines after intraperitoneal R-848, MyD88 knockout mice. The format is in vivo, mouse. The settings on record: 50 nmol intraperitoneally, ELISA. How it is done: It was examined in vivo whether TLR7 was involved in a response to R-848. The wild-type mice, MyD88 knockout mice or TLR7 knockout mice were injected intraperitoneally with 50 nmol of R-848, the sera were harvested after a predetermined period of time, and the concentration of IFN-α, TNF-α and IL12p40 in sera was determined by ELISA. […] On the contrary, the increment of these cytokines was not observed in TLR7 knockout mice.

Experiment [1] deals with BMDC derived from TLR7 knockout mice (TLR7KO). Briefly: Surface CD40, CD80, CD86 expression on bone marrow dendritic cells (flow cytometry), TLR7 knockout. The format is cell-based, mouse. The conditions noted are these: stimulated 24 h. As for the experimental part: (§1) The reactivity to R-848 in dendritic cells derived from bone marrow (BMDC) derived from TLR7 knockout mice (TLR7KO) and the wild-type mice was examined. The bone marrow cells obtained from TLR7 knockout mice and wild-type mice were cultured for six days in RPMI-1640 medium supplemented with 10% fatal bovine serum and 10 ng/ml of GM-CSF (mouse granulocyte/macrophage colony stimulating factor). The obtained mouse undifferentiated dendritic cells were stimulated with R-848 or CpGDNA for 24 h, the cells were stained with biotinylated antibody to CD40, CD80 and CD86, and phycoerythrin (PE)-associated streptavidin was detected, which was analyzed by automated-cell analysing system (FACSCalibur). The results of examination of the expression of the molecules of CD40, CD80 and CD86 onto the surface of cells by flow cytometry are shown in FIG. 11. Similar to the case with CpGDNA, when BMDC derived from wild-type mice was stimulated with R-848, upregulation of CD40, CD80 and CD86 expression was induced. On the contrary, when BMDC derived from TLR7 knockout mice (TLR7KO) was stimulated with R-848, the expression of these molecules on cell surface was not enhanced.

The test system of experiment [2] is BMDC derived from wild-type mice. The experiment in a line: Surface CD40, CD80, CD86 expression on bone marrow dendritic cells (flow cytometry), wild-type. The format is cell-based, mouse. The conditions noted are these: stimulated 24 h. As for the experimental part:
as §1

The subject of the next experiment is genital herpes. The settings on record: actual treatment; cited from earlier work.
Experiment [3] has as its system macrophages derived from TLR7 knockout mice. Briefly: Intracellular signalling (NF-κB EMSA, JNK and IRAK in vitro kinase assay) in macrophages, TLR7 knockout. The format is cell-based, mouse. The conditions noted are these: TLR7KO macrophages, 100 nM R-848. How it is done:
Next, the activation of intracellular signaling cascade to an antiviral immune-modulator was examined. Peritoneal macrophages (2×10^6 cells) from TLR7 knockout mice (TLR7KO) and wild-type mice respectively stimulated with thioglycollic acid, were stimulated with 100 nM of R-848 or 1.0 μM of CpGDNA 1668 (CpG) for a certain period of time, nucleoprotein was extracted, the extract obtained with the specific probe including NF-κB associated-site was incubated, electrophoresed, visualized by autoradiography, and NF-κB activation was examined as DNA-associated protein by electrophoretic mobility shift assay (EMSA). In FIG. 12, an arrow indicates induced NF-κB complexes, and an arrow head indicates a free probe.
The functional role of TLR7 in transactivation of NF-κB reporter gene induced by R-848 was examined. HEK293 cells were transiently cotransfected with TLR7 expression plasmids derived from human, and luciferase activity was measured before and after R-848 stimulation. The peritoneal macrophages derived from TLR7 knockout mice (TLR7KO) and wild-type mice stimulated with thioglycollic acid were stimulated with 100 nm of R-848 or 1.0 μM of phosphothioate modified CpGDNA 1668 (CpG), all cell lysate were prepared, immunoprecipated with anti-JNK antibody, and JNK activity was examined by In Vitro Kinase Assay using GST-c-Jun fusion protein as a substrate. The same lysate was blotted with anti-JNK antibody. Moreover, the lysate was immunoprecipated with anti-IRAK, and kinase activity of IRAK was examined by In Vitro Kinase Assay. The same lysate was blotted with anti-IRAK antibody. […] It is important to activate TLR7-MyD88-dependent signal pathway for the effect of imidazoquinoline in vivo.

Experiment [4] deals with peritoneal macrophages from MyD88 knockout mice. Briefly: Cytokine production by peritoneal macrophages (ELISA), MyD88 knockout. The settings on record: 5×10^4 cells, presence or absence of 30 U/ml IFN-γ. The format is cell-based, mouse. How it is done:
(§2) 2 ml of 4% thioglycollic acid medium (DIFCO) were injected into the intraperitoneals of the wild-type mice, TLR7 knockout mice (TLR7KO), MyD88 knockout mice (MyD88KO) and TLR9 knockout mice (TLR9KO), respectively, three days later, peritoneal exudate cells were isolated from intraperitoneal of each mouse, these cells were cultured in PRMI 1640 medium (GIBCO) added with 10% fatal bovine serum (GIBCO) at 37° C. for two hours, nonadherent cells were […] by washing with Hank's buffered salt solution (HBBS; GIBCO) at iced temperature, and the adherent cells were used as peritoneal macrophages in following experiment. Total RNA (10 μg) obtained from macrophages derived from the wild-type mice (+/Y) and TLR7 knockout mouse (TLR7KO) was electrophoresed, transferred onto a nylon membrane, and hybridized with a part of TLR7 DNA, and this membrane was rehybridized with β-actin probe. It was examined by the Northern blotting. From the results shown in FIG. 3, the expression of TLR7mRNA could not be found in TLR7 knockout mice.
(§3) In addition, the measurement of cytokine generated from peritoneal macrophages was executed as follows; […] peritoneal macrophages of 2×10^5 well or 5×10^4 well were cultured in 96-well plate respectively, and after stimulated with the above-mentioned reagents for 24 h, concentration of TNF-α, IL-12p40, IL-6 and/or IFN-α were measured by ELISA according to the manual.
(§4) Before examining the reactivity of TLR7 knockout mice to imiquimod and R-848 which are imidazoquinoline group compound, firstly imiquimod or R-848 were administered to BALB/c mice (wild-type) orally at the predetermined concentration, respectively, the concentration of IFN-α, TNF-α and IL-12 in serum were measured after two hours. […] The data is shown as a mean value+/−S.D. (N=3). Similarly, the ability of these compounds to activate immune cells via TLR was examined using imiquimod or R-848 respectively. The peritoneal macrophages (5×10^4 cells) from wild-type mice and MyD88 knockout mice prepared in example 2, were stimulated by imiquimod or R-848, in the presence or absence of 30 U/ml of IFN-γ, and the concentration of TNF-α and IL-12 produced by peritoneal macrophages were measured by ELISA. […] The data is shown as a mean value+/−S.D. (N=3).

Experiment [5] has as its system peritoneal macrophages from wild-type mice. Briefly: Cytokine production by peritoneal macrophages (ELISA), wild-type. The format is cell-based, mouse. The conditions noted are these: 5×10^4 cells, presence or absence of 30 U/ml IFN-γ. As for the experimental part: as §2, §3, §4

As to `CCOCc1nc2c(N)nc3ccccc3c2n1CC(C)(C)O` [R-848, resiquimod], in the experiment with MyD88 knockout mice, the “concentration of IFN-α in sera” value was “did not show any reactivity”, the “concentration of IL12p40 in sera” value is “did not show any reactivity” and the “concentration of TNF-α in sera” value was “did not show any reactivity”. In experiment [1], the “CD40 expression on cell surface” value is “not enhanced”, the “CD80 expression on cell surface” value is “not enhanced” and the “CD86 expression on cell surface” value was “not enhanced”. In experiment [2], the “CD40 expression on cell surface” value was “upregulation”, the “CD80 expression on cell surface” value was “upregulation” and the “CD86 expression on cell surface” value is on record as “upregulation”. Also, the treating genital herpes result with genital herpes is on record as “effective”. Besides, in experiment [3], the “activation of c-Jun N terminal kinase (JNK)” value was “completely destructed”, the “enhanced DNA avidity of NF-κB transcription (EMSA)” value is listed as “completely destructed” and the “phosphorylation of IRAK” value was “completely destructed”. Moreover, in experiment [4], the “IL-12 produced by peritoneal macrophages” value is given as “hardly produced any cytokines” and the “TNF-α produced by peritoneal macrophages” value is “hardly produced any cytokines”. In addition, in experiment [5], the “IL-12 produced by peritoneal macrophages” value is recorded as “in large amount” and the “TNF-α produced by peritoneal macrophages” value is reported as “in large amount”.
